{"source": "PubChem BioAssay (NCI)", "experiment_in_all_cases": "growth of human tumour cells (NCI), 48 h", "key": {"[1]": {"system": "HT29 colon"}, "[2]": {"system": "K-562 leukemia"}, "[3]": {"system": "M14 melanoma"}, "[4]": {"system": "M19-MEL melanoma"}, "[5]": {"system": "OVCAR-4 ovarian"}, "[6]": {"system": "OVCAR-8 ovarian"}, "[7]": {"system": "UO-31 renal"}}, "note": "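All cell lines were grown in 96-well plates and treated with compound for 48 hours. TGI marks complete inhibition of growth.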"}
{"compound": "CC/C(CC(=O)CCC(=O)Nc1ccc(C)c(C)c1)=N\\NC(=O)c1cc2ccccc2cc1O", "values": [{"measurement": "TGI", "setting": "[1]", "value": "> 100", "unit": "µM"}, {"measurement": "TGI", "setting": "[2]", "value": "> 100", "unit": "µM"}, {"measurement": "TGI", "setting": "[3]", "value": 42.5, "unit": "µM"}, {"measurement": "TGI", "setting": "[4]", "value": "> 100", "unit": "µM"}, {"measurement": "TGI", "setting": "[5]", "value": "> 100", "unit": "µM"}, {"measurement": "TGI", "setting": "[6]", "value": "> 100", "unit": "µM"}, {"measurement": "TGI", "setting": "[7]", "value": "> 100", "unit": "µM"}]}
